Laboratory results as given in patent EP4201929A1, “QUINOXALINE THIOREDOXIN REDUCTASE INHIBITORS” (geneXplain GmbH, priority 2021, dated 2023).

Columns and labels:
cancer cells = test: Cell growth assay in combination with BSO; format: cell-based
Protocol: Further, we tested whether the inhibition of GR by BSO will have additive effect with 1d*HCl. If 1d*HCl mechanism of action includes inhibition of GR, BSO will not have an additive effect. We used a range of concentrations of 1d*HCl and BSO in cell growth assays.
Next, we tested whether the prevention of oxidative stress by NAC will affect the growth suppression by the combination of 1d*HCl and BSO. In the presence of NAC we observed the additive effect of 1d*HCl with 50 µM BSO only at twice higher dose of 1d*HCl - 10 µM.

TrxRl = biological target: T1, TrxRl (Homo sapiens, UniProt Q16881); test: TrxR1 enzymatic activity measurement in cellulo (TXN-dependent insulin reduction assay); format: cell-based; conditions: MCF7 breast cancer cells, 5 or 10 µM, 2h after treatment, depending on concentration
T1 construct: endogenous in cells; host or cells: MCF7 (A37, A39); HCT116 (A39)
Protocol: MCF7 cells were treated with 5 or 10 µM 1d*HCl or DMSO as a control. Cells were collected 2 h and 6 h after treatment, washed twice with PBS, and lysed in 100 µL of lysis buffer (50 mM Tris-HCl, 2mM EDTA, 0.15 M NaCl, 1% Triton X-100, protease inhibitors (Roche), pH 7.5). Cells were scraped, collected and snap frozen. After three freeze-thawing cycles the lysate was spinned down, supernatant collected and protein concentration measured using Pierce bicinchoninic acid assay kit (BCA, from Thermofisher Scientific) according to the manufacturer's protocol. To measure TrxR activity, the end-point TXN-dependent insulin reduction assay was used, essentially as described previously (WC Stafford, et al, Irreversible inhibition of cytosolic thioredoxin reductase 1 as a mechanistic basis for anti-cancer therapy, Sci Transl Med (2018), Feb 14;10(428):eaaf7444. doi: 10.1126/scitranslmed.aaf7444). […] After 0, 15 and 30 min, 10 µL aliquots were taken and combined with 6 M guanidine-HCl and 2.5 mM DTNB in 96-well plates (PerkinElmer), whereupon the absorbance at 412 nm was measured using microplate spectrophotometer (TECAN). Levels of active TrxR were normalised to DMSO control samples from each treatment timepoint.
Having established that 1d*HCl inhibits TrxR1activity in vitro, it was important to confirm that 1d*HCl targets TrxRl in living cells. […]

[1] = biological target: T2, recombinant purified TrxRl (Homo sapiens, UniProt Q16881); test: TrxR1 enzymatic activity measurement in vitro; format: biochemical; conditions: recombinant purified enzyme in vitro
T2 construct: made in house; host or cells: Release Factor 1-depleted E. coli strain
Protocol: (§1) TrxRl enzyme was recombinantly produced with high Sec contents in a specific Release Factor 1-depleted E. coli strain and purified as previously described (Arnér ESJ, Holmgren A, in Current Protocols in Toxicology, Maines M, Costa L, Reed D, Sassa S, Eds. (John Wiley & Sons, Inc., New York, 2000), pp. 7.4.1-7.4.14). TrxRl and GSR (Sigma) recombinant enzyme assays were performed in a reaction buffer containing 50 mM Tris pH 7.5 with 2 mM EDTA and 0.1 mg/mL bovine serum albumin as described previously (Arnér ESJ, Holmgren A, in Current Protocols in Toxicology, Maines M, Costa L, Reed D, Sassa S, Eds. (John Wiley & Sons, Inc., New York, 2000), pp. 7.4.1-7.4.14). Briefly, assays were performed in triplicate using 96-well plates, with activity inferred from absorbance changes using a Spectra Max plate reader. Results of recombinant enzyme assays were normalized to DMSO and to no enzyme controls.
We used recombinant purified TrxRl and GR in an in vitro assay as described in methods section.

p53 = p53 induction by Western blot; format: cell-based; conditions: sign of DNA damage
Protocol: (§2) The extraction of total cell lysates and western blot were performed according to standard procedure. The antibodies used for immunoblotting were: p53 (sc-126, Santa Cruz Biotechnology), γH2AX (#07-164, Millipore), TrxRl 19A1 (AbFrontier). Anti-β-actin monoclonal antibody (Millipore) was used as loading control. The horseradish peroxidase-coupled secondary antibodies (Jackson ImmunoResearch) and SuperSignal™ West Dura Extended Duration Substrate detection system (Thermo Fischer Scientific), and images were visualized using ChemiDoc Imaging System (Bio-Rad).
(§3) The majority of chemotherapeutic drugs used currently in the clinic, are DNA damaging drugs. Induction of DNA damage is a very efficient way of elimination of cancer cells. Unfortunately, these drugs induce DNA damage also in normal cells, leading to severe side effects. We addressed the question whether 1d*HCl induces DNA damage. We tested this by detection of a hallmark of DNA damage, induction of phosphorylated histone H2AX, so called γH2AX. We used anti-yH2AX antibody to detect it in cells treated with 1d*HCl.

[2] = test system: reactive oxygen species (ROS); test: Oxidative stress measurement (DCFH-DA-based assay); format: cell-based
Protocol: Cells were treated with compounds and incubated 30 min with 10 µM DCF-DA in serum free medium. Afterward, cells were trypsinized, washed with PBS and fluorescence was analyzed by a FACSCalibur flow cytometer (BD Biosciences) using FL1-H channel.
To get insight into the mechanism of the anti-tumor activity of 1d*HCl, we tested the level of oxidative stress upon treatment. We measured the induction of reactive oxygen species (ROS), using 2'-7'-Dichlorodihydrofluorescein diacetate (DCFH-DA)-based assay. […] After 8h of treatment, the induction of reactive oxygen species (ROS) was much higher.

GR = GR (Homo sapiens, UniProt P00390); test: GR enzymatic activity measurement in vitro; format: biochemical; design: purchased Sigma; conditions: recombinant purified enzyme in vitro
Protocol: as §1
Glutathione reductase inhibition assay was performed according to (S. Busker, W. Qian, M. Haraldsson, B. Espinosa, L. Johansson, S. Attarha, I. Kolosenko, J. Liu, M. Dagnell, D. Grandér, E.S.J. Arnér, K. PokrovskajaTamm, B.D.G. Page. Irreversible TrxRl inhibitors block STAT3 activity and induce cancer cell death, Sci. Adv., 6 (2020), 10.1126/sciadv.aax7945). 5 or 10 µM compound was incubated with 175 µM GSH in TE buffer. […]

γH2AX = test: DNA damage detection by Western blot (phosphorylated histone H2AX); format: cell-based; conditions: HCT116 and MCF7
Protocol: as §2, §3

GR, sequence (P00390 44-522): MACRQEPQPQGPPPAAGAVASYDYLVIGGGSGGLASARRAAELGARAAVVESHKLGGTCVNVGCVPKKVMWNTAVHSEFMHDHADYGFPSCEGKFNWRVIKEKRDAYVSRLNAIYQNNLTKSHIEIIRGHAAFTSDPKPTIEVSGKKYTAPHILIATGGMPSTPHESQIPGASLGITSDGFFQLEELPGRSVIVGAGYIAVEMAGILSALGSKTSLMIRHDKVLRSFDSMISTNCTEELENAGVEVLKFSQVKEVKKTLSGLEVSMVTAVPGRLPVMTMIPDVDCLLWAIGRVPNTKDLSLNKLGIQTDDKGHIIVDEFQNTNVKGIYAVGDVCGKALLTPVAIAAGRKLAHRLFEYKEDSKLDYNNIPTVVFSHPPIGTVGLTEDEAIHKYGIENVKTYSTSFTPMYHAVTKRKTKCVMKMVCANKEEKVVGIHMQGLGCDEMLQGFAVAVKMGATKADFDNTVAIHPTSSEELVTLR
T2 sequence (Q16881 151-649): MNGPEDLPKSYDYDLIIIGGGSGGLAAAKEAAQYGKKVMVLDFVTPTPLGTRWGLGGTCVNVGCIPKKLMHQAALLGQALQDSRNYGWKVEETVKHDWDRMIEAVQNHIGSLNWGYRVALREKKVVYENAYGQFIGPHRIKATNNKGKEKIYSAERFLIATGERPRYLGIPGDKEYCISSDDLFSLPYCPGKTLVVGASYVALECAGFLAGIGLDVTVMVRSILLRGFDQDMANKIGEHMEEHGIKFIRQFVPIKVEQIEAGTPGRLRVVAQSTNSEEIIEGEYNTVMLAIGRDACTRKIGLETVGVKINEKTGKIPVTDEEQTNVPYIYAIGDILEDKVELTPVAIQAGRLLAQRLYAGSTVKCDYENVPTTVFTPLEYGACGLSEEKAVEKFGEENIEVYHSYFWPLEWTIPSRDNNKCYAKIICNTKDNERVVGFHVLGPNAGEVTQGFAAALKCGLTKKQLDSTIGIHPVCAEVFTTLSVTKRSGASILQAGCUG
T1 sequence (Q16881 151-649): as above

Cl.N#Cc1c(-c2cccnc2)[n+]([O-])c2cc(F)c(N3CCOCC3)cc2[n+]1[O-] [1d*HCl, 6-Fluoro-7-(morpholin-4-yl)-3-(pyridin-3-yl)quinoxaline-2-carbonitrile-1,4-dioxide hydrochloride]
effect of combination with BSO on cell growth (cancer cells; 5 µM 1d*HCl with 50 µM BSO): have an additive effect and completely eradicated cancer cells | dose of 1d*HCl at which additive effect with 50 µM BSO is observed (cancer cells; in the presence of NAC): 10 µM | inhibition of TrxRl activity in cells (TrxRl): 70-80% | enzymatic activity of TrxRl [1]: efficiently inhibited the enzymatic activity of TrxRl in a dose- and time-dependent manner | induction of p53 (p53): did not detect a significant induction of p53 | DCF fluorescence (induction of reactive oxygen species) ([2]; 2h after treatment): significant increase in DCF fluorescence | induction of reactive oxygen species (ROS) ([2]; after 8h of treatment): much higher | GR activity (GR): did not inhibit GR activity | induction of γH2AX (γH2AX): negligible
